This passage reports Papp results from ChEMBL document CHEMBL1142653, “In silico prediction of membrane permeability from calculated molecular parameters” (J Med Chem, 2005).

Series [1] is described as follows: Apparent permeability of the compound was determined in MDCK (madin darby canine kidney) strain I; Activity = Papp 10e-6. It counts as ADME, Canis lupus familiaris. The following applies: dog.
Series [2] can be described thus: Apparent permeability of the compound was determined inCaco-2 (human colon carcinoma) cells; Activity = Papp 10E-6. It counts as ADME. The conditions noted are these: Caco-2. Background: Passage across Caco-2 layers is used to estimate intestinal permeability.

One may read the Papp as a coefficient for how fast a substance crosses the barrier. For `O=C(N[C@H](CO)[C@H](O)c1ccc([N+](=O)[O-])cc1)C(Cl)Cl` [CHLORAMPHENICOL], the Papp in series [1] came out at 3.15 ×10⁻⁶ cm/s.

Turning to `COCCc1ccc(OCC(O)CNC(C)C)cc1` (stereo unspecified) [METOPROLOL], the Papp in series [2] was determined as 18.2 ×10⁻⁶ cm/s; in series [1] it was 37.8 ×10⁻⁶ cm/s.

As for `CC(C)NCC(O)COc1cccc2ccccc12` (stereo unspecified) [PROPRANOLOL], the apparent permeability (Papp) in series [2] was determined as 12.6 ×10⁻⁶ cm/s; in series [1] it was 34.4 ×10⁻⁶ cm/s.

Turning to `CN/C(=C\[N+](=O)[O-])NCCSCc1ccc(CN(C)C)o1` [RANITIDINE], the apparent permeability coefficient (Papp) in series [1] is 0.27 ×10⁻⁶ cm/s.
